One block for each compound: values may come before it.
What was measured:
SHP2 = biological target: T1, SHP2 (Homo sapiens, UniProt Q06124); experiment: SHP2 activity, p-Nitrophenyl Phosphate (pNPP) colorimetric assay; type: biochemical; settings: 40 uM
T1 sequence (Q06124 1-593): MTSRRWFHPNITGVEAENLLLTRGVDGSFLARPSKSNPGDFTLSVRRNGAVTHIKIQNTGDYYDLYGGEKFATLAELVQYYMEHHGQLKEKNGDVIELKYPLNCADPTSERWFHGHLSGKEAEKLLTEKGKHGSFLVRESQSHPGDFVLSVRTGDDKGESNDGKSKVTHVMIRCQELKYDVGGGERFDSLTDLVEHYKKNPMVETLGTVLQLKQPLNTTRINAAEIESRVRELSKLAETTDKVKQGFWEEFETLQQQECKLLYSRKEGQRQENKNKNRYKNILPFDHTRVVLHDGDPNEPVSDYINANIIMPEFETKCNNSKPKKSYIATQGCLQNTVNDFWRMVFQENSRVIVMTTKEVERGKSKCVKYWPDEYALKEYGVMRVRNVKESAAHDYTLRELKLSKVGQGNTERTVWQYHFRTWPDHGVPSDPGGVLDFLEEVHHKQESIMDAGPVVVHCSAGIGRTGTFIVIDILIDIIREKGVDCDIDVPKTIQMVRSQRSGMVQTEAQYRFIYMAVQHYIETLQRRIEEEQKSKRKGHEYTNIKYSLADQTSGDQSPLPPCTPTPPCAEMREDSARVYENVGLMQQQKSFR

[1] = system: NFAT mediated transcriptional activity of Jurkat cells; experiment: NFAT luciferase reporter in Jurkat(-PD1) cells co-cultured with wild type Raji or Raji-PD-L1 cells without or with SEE; type: cell-based; settings: for modulation effect on basal NFAT activity: absence of SEE, wild type Raji or PD-L1 over-expressed Raji cells; for inhibition on NFAT activity of Jurkat cells: presence of SEE; for modulation of basal NFAT activity: S compounds up to 40 uM; for inhibition of SEE triggered NFAT activity: at 20 to 40 uM, SEE 10 ng/ml
[2] = system: Lck, Fyn, Zap70, LAT and Pyk2; experiment: Western blot of protein phosphorylation of T cell receptor downstream cascades in Jurkat cells; type: cell-based; settings: 45 min
Method: FIGS. 8A-8D are western blot analyses showing effects of YIV-906 (FIG. 8A), single herbs (FIG. 8A), the fractions of YIV-906 (FIG. 8B), P (FIG. 8C), and S (FIG. 8D) on protein phosphorylation of T cell receptor signaling cascades including, Lck, Fyn, Zap70, LAT and Pyk2. […] All eluted fractions were dried and reconstituted with water to equivalent concentration at 100 mg/ml. Jurkat cells were treated with YIV-906 (FIG. 8A), single herbs (FIG. 8A), the fractions of YIV-906 (FIG. 8B), P (FIG. 8C), and S (FIG. 8D) at equivalent dose 320 ug/ml for 45 min. Western blot analysis was used to determine the protein phosphorylation using specific antibodies. GAPDH was used to normalize the protein loading.
FIGS. 9A-9B show chemical identification of fractions of P (FIG. 9A) and S (FIG. 9B) after C18 column fractionation and their impacts on protein phosphorylation for Lck, Zap70, Lat, Fyn/Src, Pyk2. Equivalent concentration, 10 mg/ml, was used for LC-MS analysis. Equivalent concentration, 320 ug/ml for 45 min, was used for treating Jurkat cells for western blotting analysis. Identified chemicals (putative), based on their mass and mass of their fragments, were listed under each fraction. Non-identified chemical was not listed in this figure. Fraction could induce phosphorylation of specific protein was indicted as red upward arrow.
FIG. 10 show effects of S and P compounds on protein phosphorylation of T cell receptor signaling cascades including, Lck, Fyn, Zap70, LAT and Pyk2. Jurkat cells were treated with S and P compounds for 45 min. Western blot analysis was used to determine the protein phosphorylation using specific antibodies.
Jurkat-PD1 cells 10^6/ml were placed in 24 well plate treated with YIV-906 or its components herbs for 45 minutes. After spinning down the cells at 1000 g centrifugation for 10 min, red blood cells were lysed with 1 ml BD pharm lyse on ice. Cells were collected at 1000 g centrifugation for 10 min. 2×10^6 cells were used for each staining sample. The cells were prepared with 2X protein loading buffer (Tris pH 6.8 1M, SDS 1%, glycerol, B-mercaptoethanol, bromophenol blue, distilled water). The samples were then heated to 95° C. for 5 minutes to denature the proteins prior to western blot. SDS polyacrylamide gel electrophoresis (10% Mini-Protean TGX™ Precast Protein Gels, BioRad) was used to separate proteins according to their electrophoretic mobility. The protein extractions were deposited in the wells of the gel, 10 μL per well. The migration was performed in a 1X running buffer (Tris/Glycine/SDS) at 180 V for 50 minutes. The transfer of the proteins was performed on a PVDF membrane in the transfer buffer (Tris-CAPS AX, methanol, SDS 10%, distilled water) at 75 V for 1 hour. The non-specific binding sites on the PVDF membrane were blocked with a blocking solution (3% milk powder and 1X TBS-T) for 30 minutes. Then, the PVDF membrane was incubated with the primary antibody against the proteins of interest overnight at 4° C. The information of primary antibodies is as follows: P-Lck-Y394 (Biolegend, #933101), P-Zap70-Y319 (Cell signaling, #2717), P-LAT-Y191 (Cell signaling, #3584) P-SRC (Fyn) Y416 (Cell, signaling, #6943), P-Pyk2-Y402 (Cell signaling, 3291), GAPDH (Cell Signaling, #5174). […] Image-J was used to quantify the total intensity of immunoreactive bands. […]

[3] = system: NFAT mediated transcriptional activity of Jurkat-PD1 TCRαβ knockout cells; experiment: NFAT luciferase reporter in TCRαβ knockout Jurkat-PD1 cells; type: cell-based
[4] = biological target: CD19 naturally expressed on the cell surface of Raji cells (UniProt P15391); experiment: cell-based or functional assay
CD19 naturally expressed on the cell surface of Raji cells, sequence (P15391 20-556 limits assumed): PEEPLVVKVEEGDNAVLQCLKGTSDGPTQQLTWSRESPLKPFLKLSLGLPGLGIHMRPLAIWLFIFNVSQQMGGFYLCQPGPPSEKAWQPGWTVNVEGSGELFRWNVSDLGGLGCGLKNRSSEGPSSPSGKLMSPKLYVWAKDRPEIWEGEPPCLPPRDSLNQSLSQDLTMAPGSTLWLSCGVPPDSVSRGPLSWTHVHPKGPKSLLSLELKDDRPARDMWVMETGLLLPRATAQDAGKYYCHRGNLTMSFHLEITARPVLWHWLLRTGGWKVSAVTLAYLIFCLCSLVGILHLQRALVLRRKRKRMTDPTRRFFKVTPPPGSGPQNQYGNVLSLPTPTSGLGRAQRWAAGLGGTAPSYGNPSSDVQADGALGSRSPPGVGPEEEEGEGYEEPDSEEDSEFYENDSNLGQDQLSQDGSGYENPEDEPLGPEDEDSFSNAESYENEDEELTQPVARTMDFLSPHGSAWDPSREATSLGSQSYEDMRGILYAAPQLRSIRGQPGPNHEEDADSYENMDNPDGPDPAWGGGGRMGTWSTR

[5] = Jurkat-PD1 with wild type Raji or PD-L1 over-expressed Raji cells, without SEE

Compound: CC1(C)[C@@H](O[C@H]2O[C@H](C(=O)O)[C@@H](O)[C@H](O)[C@H]2O[C@@H]2O[C@H](C(=O)O)[C@@H](O)[C@H](O)[C@H]2O)CC[C@]2(C)[C@H]3C(=O)C=C4[C@@H]5C[C@@](C)(C(=O)O)CC[C@]5(C)CC[C@@]4(C)[C@]3(C)CC[C@@H]12 [Glycyrrhizic acid]
inhibitory effect on SHP2, G compounds (SHP2): relatively higher inhibitory effects on SHP2 than other G compounds

Compound: O=C1C[C@@H](c2ccc(O)cc2)Oc2cc(O)ccc21 [liquiritigenin]
modulation effect on basal NFAT activity ([1]; 40 uM): some modulation effect

inhibitory effect on SHP2, S compounds (SHP2): showed inhibitory effect on SHP2
Compound: COc1c(O[C@@H]2O[C@H](C(=O)O)[C@@H](O)[C@H](O)[C@H]2O)cc(O)c2c(=O)cc(-c3ccccc3)oc12 [wogonoside]

Compound: COc1ccc2c(c1O)-c1c(O)c(OC)cc3c1[C@H](C2)[N+](C)(C)CC3 [Magnoflorine]
inhibition on NFAT activity of Jurkat cells ([1]; Z compound up to 40 uM): showed inhibition on NFAT activity

inhibitory effect on SHP2, S compounds (SHP2): showed inhibitory effect on SHP2
Compound: COc1c(O[C@@H]2O[C@H](C(=O)O)[C@@H](O)[C@H](O)[C@H]2O)cc2oc(-c3ccccc3)cc(=O)c2c1O [oroxylin A 7-O-beta-D-glucuronide]
modulation of basal NFAT activity [1, 5]: could modulate the basal NFAT activity | dose required to achieve 2-fold activity of NFAT ([1]; basal, without SEE, Jurkat-PD1 with wild type Raji or PD-L1 over-expressed Raji cells): 40 µM | induction effect on P-Zap70-Y319, P-SRC (Fyn)-Y416 and P-Pyk2-Y402 ([2]; 40 uM): some induction effect | impact on NFAT activity, Jurkat-PD1 versus Jurkat-PD1 TCRαβ KO cells [3]: very similar impact on NFAT activity

Compound: C[C@]12C[C@@H](O)[C@@H]3C[C@@]1(O[C@@H]1O[C@H](CO)[C@@H](O)[C@H](O)[C@H]1O)[C@@]3(COC(=O)c1ccccc1)C(=O)O2 [Albiforin]
inducing P-Zap70-Y319 and P-Pyk2-Y402 [2]: some effect

Compound: Anti-PD1: antibody produced from Nivolumab clone; InVivoSIM anti-human PD-1 (Nivolumab Biosimilar)
rescue of depressed NFAT activity (due to the interaction of PD1 and PD-L1) in Jurkat-PD1 cells ([1]; Raji-PD-L1 cells, SEE 10 ng/ml or 30 ng/ml, YIV-906 160 ug/ml, nivolumab biosimilar 18 ug/ml): rescued the depressed NFAT activity

NFAT activity of Jurkat-PD1 CAR-CD19 cells co-cultured with Raji (NFAT luciferase reporter) [4]: 40 fold
Compound: chimeric antigen receptor (CAR-CD19-CD3zeta) on Jurkat-PD1 NFAT-luc cells

Compound: C=CC(C)(C)c1cc(/C=C/C(=O)c2ccc(O)cc2)c(OC)cc1O [licochalcone A]
inhibition on NFAT activity of Jurkat cells ([1]; 40 uM): showed inhibition on NFAT activity | modulation effect on basal NFAT activity ([1]; 10-20 uM): some modulation effect

inhibitory effect on SHP2, S compounds (SHP2): showed inhibitory effect on SHP2
Compound: O=c1cc(-c2ccccc2)oc2cc(O)c(O)c(O)c12 [baicalein]
modulation of basal NFAT activity [1, 5]: could modulate the basal NFAT activity | inhibition of SEE triggered NFAT activity [1]: could inhibit SEE triggered NFAT activity | induction of protein phosphorylation of all examined proteins (Lck, Zap70, LAT, Fyn, Pyk2) ([2]; 40 uM): could strongly induce protein phosphorylation of all examined proteins | impact on NFAT activity, Jurkat-PD1 versus Jurkat-PD1 TCRαβ KO cells [3]: very similar impact on NFAT activity

Compound: CC1(C)[C@@H](O)CC[C@]2(C)[C@H]3C(=O)C=C4[C@@H]5C[C@@](C)(C(=O)O)CC[C@]5(C)CC[C@@]4(C)[C@]3(C)CC[C@@H]12 [glycyrrhetinic acid]
inhibitory effect on SHP2, G compounds (SHP2): relatively higher inhibitory effects on SHP2 than other G compounds

Compound: C[C@@]12C[C@@]3(O)O[C@@H](O1)[C@]1(COC(=O)c4ccccc4)[C@H]3C[C@@]12O[C@@H]1O[C@H](CO)[C@@H](O)[C@H](O)[C@H]1O [Paeoniforin]
inducing P-Zap70-Y319 and P-Pyk2-Y402 [2]: some effect

Compound: COc1c(CC=C(C)C)c(O)cc2oc(=O)c(-c3ccc(O)cc3O)cc12 [glycycoumarin]
modulation effect on basal NFAT activity ([1]; 10 uM): some modulation effect

Compound: O=C1C[C@@H](c2ccc(O[C@@H]3O[C@H](CO)[C@@H](O)[C@H](O)[C@H]3O)cc2)Oc2cc(O)ccc21 [liquiritin]
modulation effect on basal NFAT activity ([1]; 20 uM): some modulation effect

inhibitory effect on SHP2, S compounds (SHP2): showed inhibitory effect on SHP2
Compound: O=C(O)[C@H]1O[C@@H](Oc2cc3oc(-c4ccccc4)cc(=O)c3c(O)c2O)[C@H](O)[C@@H](O)[C@@H]1O [Baicalin]
induction effect on P-Zap70-Y319, P-SRC (Fyn)-Y416 and P-Pyk2-Y402 ([2]; 40 uM): some induction effect

Compound: O=C(/C=C/c1ccc(O)cc1)c1ccc(O)cc1O [Isoliquiritigenin]
modulation effect on basal NFAT activity ([1]; 10 uM): some modulation effect | inhibition on NFAT activity of Jurkat cells ([1]; 40 uM): showed inhibition on NFAT activity

Compound: COc1c(O)cc2oc(-c3ccccc3)cc(=O)c2c1O [oroxylin A]
modulation of basal NFAT activity [1, 5]: could modulate the basal NFAT activity | inhibition of SEE triggered NFAT activity [1]: could inhibit SEE triggered NFAT activity | inhibitory effect on SHP2, S compounds (SHP2): showed inhibitory effect on SHP2 | impact on NFAT activity, Jurkat-PD1 versus Jurkat-PD1 TCRαβ KO cells [3]: very similar impact on NFAT activity
